Values quoted from earlier work in US12274284B2, “High-energy food supplement based on inverted sugars and ergogenic products for use in physical activity and method for producing same” (priority 2019, dated 2025).
Like-named read-outs stand apart in the source and are kept apart here.

Key:
[1] = oral administration
[2] = 1 to 6 g/day for a maximum of six months
[3] = 300 mg/day
action of insulin = conditions: 5%, 8 weeks, mice
oxidative stress markers = conditions: 300 mg/kg, 15 days, mice
[4] = not given; remark: listed apart in the source
[5] = system: muscle carnosine concentrations; conditions: 4-6 g/day

Cn1c(=O)c2c(ncn2C)n(C)c1=O [Caffeine, 1,3,7 trimethylxanthine]
bioavailability [1]: approximately 100%

C[N+](C)(C)C[C@H](O)CC(=O)[O-] [carnitine, L-carnitine]
adverse effect or intoxication [2]: no adverse effect or intoxication | plasma concentrations of carnitine [2]: considerably improved the plasma concentrations of carnitine

COC1=C(OC)C(=O)C(C/C=C(\C)CC/C=C(\C)CC/C=C(\C)CC/C=C(\C)CC/C=C(\C)CC/C=C(\C)CC/C=C(\C)CC/C=C(\C)CC/C=C(\C)CCC=C(C)C)=C(C)C1=O [coenzyme Q10]
feeling of tiredness and physical performance during effort tests [3]: reduced the feeling of tiredness and improved physical performance

CC(=O)C(=O)O [pyruvate, calcium pyruvate]
patients with a fat loss (0.05 g/Kg/day after 0.1 g/kg/day for 10 days, 13 to 38 days): 79.6% | patients with a reduction in skinfolds (in vivo): 89.8% | patients with a reduction in the abdomen circumference (in vivo): 74%

NCCS(=O)(=O)O [taurine, 2-aminoethanesulfonic acid]
action of insulin in liver and skeletal muscle (action of insulin): boosted the action of insulin in the liver and the skeletal muscle | superoxide radicals, lipid peroxidation, carbonylation (oxidative stress markers): reduced the production of superoxide radicals, lipid peroxidation, and carbonylation

O=C1O[C@H]([C@@H](O)CO)C(O)=C1O [vitamin C]
tissue concentration of the vitamin ([4]; 400 mg/day): increased the tissue concentration of the vitamin

NCCC(=O)O [β-alanine]
increase in muscle carnosine concentrations ([5]; after 10 weeks): 80% | increase in muscle carnosine concentrations ([5]; following 4 weeks): ≤ 64%

vitamin E
blood plasma concentration of a protein associated with muscle injury ([4]; 1000 UI/day): reduced the concentration of a protein associated with muscle injury in the blood plasma
